We go through four molecules from US9115137B2, “2,3,4,5-tetrahydro-1H-pyrido[4,3-B]indole compounds and methods of use thereof” (priority 2008, dated 2015).

In assay [1] the target is T1, human recombinant adrenergic α2A receptor (Homo sapiens, UniProt P08913).
T1 construct: expressed in transfected cells; host or cells: insect Sf9 cells
T1 sequence (P08913 1-465): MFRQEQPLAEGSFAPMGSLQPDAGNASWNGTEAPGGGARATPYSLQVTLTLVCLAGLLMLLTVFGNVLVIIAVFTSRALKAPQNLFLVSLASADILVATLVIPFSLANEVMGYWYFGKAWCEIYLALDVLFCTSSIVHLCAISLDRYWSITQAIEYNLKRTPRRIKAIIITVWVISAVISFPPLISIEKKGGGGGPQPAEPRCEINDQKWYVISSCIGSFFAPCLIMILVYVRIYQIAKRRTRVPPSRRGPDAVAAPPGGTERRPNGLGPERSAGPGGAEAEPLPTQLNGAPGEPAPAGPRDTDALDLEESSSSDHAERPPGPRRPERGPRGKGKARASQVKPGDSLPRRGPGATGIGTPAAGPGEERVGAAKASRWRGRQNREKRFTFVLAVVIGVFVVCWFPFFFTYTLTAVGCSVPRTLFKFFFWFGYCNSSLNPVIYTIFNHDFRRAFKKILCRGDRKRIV
The assay can be described thus: Adrenergic α2A radioligand binding ([3H]MK-912). The conditions noted are these: compound at 1 μM; insect Sf9 cells; read-out: Adrenergic (1 μM) α2A, percent inhibition of specific binding. The gist of the method:
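Membranes from Sf9 cells expressing the receptor were incubated with 1 nM [3H]MK-912 for 60 min at 25 °C in Tris-HCl pH 7.4 with MgCl2 and EDTA. Nonspecific binding defined by 10 μM WB-4101; compounds tested at ≤1 μM (1% DMSO), reported as percent inhibition of specific binding.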

For assay [2], the target named is T2, human recombinant serotonin (5-Hydroxytryptamine) 5-HT7 receptor (Homo sapiens, UniProt P34969).
T2 construct: expressed in transfected cells; host or cells: CHO cells
T2 sequence (P34969 whole entry): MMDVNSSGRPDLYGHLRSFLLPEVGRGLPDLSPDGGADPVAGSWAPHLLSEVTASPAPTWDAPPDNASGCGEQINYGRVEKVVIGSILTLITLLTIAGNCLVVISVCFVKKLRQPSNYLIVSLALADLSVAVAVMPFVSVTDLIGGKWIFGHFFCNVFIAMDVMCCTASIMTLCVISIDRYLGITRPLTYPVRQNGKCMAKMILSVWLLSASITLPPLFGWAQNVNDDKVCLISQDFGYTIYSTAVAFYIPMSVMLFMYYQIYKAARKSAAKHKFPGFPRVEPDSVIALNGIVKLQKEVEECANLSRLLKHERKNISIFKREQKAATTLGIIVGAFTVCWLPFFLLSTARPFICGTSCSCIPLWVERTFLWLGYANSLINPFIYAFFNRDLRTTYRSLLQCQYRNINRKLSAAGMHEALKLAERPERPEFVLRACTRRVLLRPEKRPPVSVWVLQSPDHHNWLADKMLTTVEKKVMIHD
The experiment in a line: Serotonin 5-HT7 radioligand binding ([3H]LSD). The conditions noted are these: compound at 1 μM; CHO cells; read-out: Serotonin (1 μM) 5-HT7, percent inhibition of specific binding. The protocol:
To evaluate in radioligand binding assays the activity of compounds of the invention, human recombinant serotonin (5-Hydroxytryptamine) 5-HT7 receptor expressed in Chinese hamster ovary (CHO) cells (Roth, B. L. et al., J. Pharmacol. Exp. Ther. 268:1403, 1994; Shen, Y. et al., J. Biol. Chem. 268:18200, 1993) in a modified Tris-HCl buffer (50 mM Tris-HCl, pH 7.4, 10 mM MgCl2, 0.5 mM EDTA) was used. Compounds of invention were incubated with 5.5 nM [^3H] Lysergic acid diethylamide (LSD) for 2 hours at 25° C. Non-specific binding was estimated in the presence of 10 μM Serotonin (5-HT). Receptor proteins were filtered and washed, the filters were then counted to determine [^3H]LSD specifically bound. Compounds were screened at 1 μM or lower, using 1% DMSO as vehicle. Biochemical assay results are presented as the percent inhibition of specific binding in Table 7.

Assay [3] has as its system rat central imidazoline I2 receptor. The experiment in a line: Central imidazoline I2 radioligand binding ([3H]Idazoxan). The conditions noted are these: compound at 1 μM; Wistar Rat cerebral cortex.
For assay [4], the target named is T3, human recombinant serotonin (5-Hydroxytryptamine) 5-HT2B receptor (Homo sapiens, UniProt P41595).
T3 construct: expressed in transfected cells; host or cells: CHO-K1 cells
T3 sequence (P41595 whole entry): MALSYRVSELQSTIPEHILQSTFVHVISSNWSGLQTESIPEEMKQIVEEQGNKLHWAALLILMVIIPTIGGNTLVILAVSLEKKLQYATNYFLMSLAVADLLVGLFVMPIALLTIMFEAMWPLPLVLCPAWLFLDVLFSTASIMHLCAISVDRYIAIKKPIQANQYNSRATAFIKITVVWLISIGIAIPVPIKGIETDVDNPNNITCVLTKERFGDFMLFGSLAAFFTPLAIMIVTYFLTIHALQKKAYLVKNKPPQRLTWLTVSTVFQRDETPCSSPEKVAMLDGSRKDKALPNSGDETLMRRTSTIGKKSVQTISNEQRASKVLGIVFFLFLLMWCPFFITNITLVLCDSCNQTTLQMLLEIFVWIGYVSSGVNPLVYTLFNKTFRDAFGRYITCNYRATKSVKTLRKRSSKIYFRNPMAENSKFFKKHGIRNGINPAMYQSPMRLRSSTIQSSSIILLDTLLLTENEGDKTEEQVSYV
The assay can be described thus: Serotonin 5-HT2B radioligand binding ([3H]LSD). The following applies: compound at 1 μM; CHO-K1 cells; read-out: Serotonin (1 μM) 5-HT2B, percent inhibition of specific binding. The protocol:
To evaluate in radioligand binding assays the activity of compounds of the invention, human recombinant serotonin (5-Hydroxytryptamine) 5-HT2B receptor expressed in Chinese hamster ovary (CHO-K1) cells (Bonhaus, D. W. et al., Br. J. Pharmacol. 115:622, 1995) in a modified Tris-HCl buffer (50 mM Tris-HCl, pH 7.4, 4 mM CaCl2, 0.1% Ascorbic Acid) was used. Compounds of invention were incubated with 1.2 nM [^3H]Lysergic acid diethylamide (LSD) for 60 minutes at 37° C. Non-specific binding was estimated in the presence of 10 μM Serotonin (5-HT). Receptor proteins were filtered and washed, the filters were then counted to determine [^3H]LSD specifically bound. Compounds were screened at 1 μM or lower, using 1% DMSO as vehicle. Compounds of the invention were tested in this biochemical assay and percent inhibition of specific binding was determined. Biochemical assay results are presented as the percent inhibition of specific binding in Table 7.

Assay [5] has as its target T4, human recombinant serotonin (5-Hydroxytryptamine) 5-HT2A receptor (Homo sapiens, UniProt P28223).
T4 construct: expressed in transfected cells; host or cells: CHO-K1 cells
The experiment in a line: Serotonin 5-HT2A radioligand binding ([3H]Ketanserin). The following applies: compound at 1 μM; CHO-K1 cells; read-out: Serotonin (1 μM) 5-HT2A, percent inhibition of specific binding. The protocol: To evaluate in radioligand binding assays the activity of compounds of the invention, human recombinant serotonin (5-Hydroxytryptamine) 5-HT2A receptor expressed in Chinese hamster ovary (CHO-K1) cells (Bonhaus, D. W. et al. Br. J. Pharmacol. 115:622, 1995; Saucier, C. and Albert, P. R., J. Neurochem. 68:1998, 1997) in a 50 mM Tris-HCl buffer, pH 7.4, was used. Compounds of the invention were incubated with 0.5 nM [^3H]Ketanserin for 60 minutes at 25° C. Non-specific binding was estimated in the presence of 1 μM Mianserin. Receptor proteins were filtered and washed, the filters were then counted to determine [^3H] Ketanserin specifically bound. Compounds were screened at 1 μM or lower, using 1% DMSO as vehicle. Biochemical assay results are presented as the percent inhibition of specific binding in Table 7.

T4 sequence (P28223 whole entry): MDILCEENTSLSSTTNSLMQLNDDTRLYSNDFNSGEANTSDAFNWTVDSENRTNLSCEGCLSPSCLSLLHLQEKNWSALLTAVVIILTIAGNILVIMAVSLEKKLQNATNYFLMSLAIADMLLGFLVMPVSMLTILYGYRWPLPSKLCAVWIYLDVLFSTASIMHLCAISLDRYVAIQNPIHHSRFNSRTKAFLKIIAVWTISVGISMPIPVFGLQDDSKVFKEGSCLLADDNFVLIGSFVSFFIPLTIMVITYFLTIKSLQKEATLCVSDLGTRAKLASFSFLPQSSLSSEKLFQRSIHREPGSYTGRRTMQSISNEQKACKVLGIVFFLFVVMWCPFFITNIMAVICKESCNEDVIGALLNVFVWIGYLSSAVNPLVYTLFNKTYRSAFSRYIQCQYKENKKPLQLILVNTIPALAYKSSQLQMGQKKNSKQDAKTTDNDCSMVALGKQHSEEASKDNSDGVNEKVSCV

Consider `CCOC(=O)CCCn1c2c(c3cc(C)ccc31)CN(C)CC2` [Compound 5, ethyl 4-(1,2,3,4-tetrahydro-2,8-dimethylpyrido[4,3-b]indol-5-yl)butanoate], for which the inhibition at 1 µM is 74% in assay [1], 95% in assay [2], 77% in assay [4] and 91% in assay [5]. The “Imidazoline I2 Central (1 μM), percent inhibition of specific binding” value in assay [3] came out at 53%.
Taken in the same sequence, the figures for `CCNC(=O)CCCn1c2c(c3cc(C)ccc31)CN(C)CC2` [Compound 6, N-ethyl-4-(1,2,3,4-tetrahydro-2,8-dimethylpyrido[4,3-b]indol-5-yl)butanamide] were 59%, 43%, 21%, 30% and 52%.
On the same counts, the results for `Cc1ccc2c(c1)c1c(n2CCNC(=O)OCC(Cl)(Cl)Cl)CCN(C)C1` [Compound 8, 2,2,2-trichloroethyl 2-(1,2,3,4-tetrahydro-2,8-dimethylpyrido[4,3-b]indol-5-yl)ethylcarbamate] are 90%, 75%, 64%, 99% and 57%.
On the same counts, the results for `Cc1ccc2c(c1)c1c(n2CCNC(=O)C2CCCNC2)CCN(C)C1` (centres unmarked) [Compound 9, N-(2-(1,2,3,4-tetrahydro-2,8-dimethylpyrido[4,3-b]indol-5-yl)ethyl)piperidine-3-carboxamide] are 20%, -8%, -5%, 15% and 9%.
